How the values were obtained:
[1] = target: T1, HDAC6 (Homo sapiens, UniProt Q9UBN7); assay: biochemical; design: in vitro inhibition of purified HDAC isozymes, dose response
T1 sequence (Q9UBN7 1-1215): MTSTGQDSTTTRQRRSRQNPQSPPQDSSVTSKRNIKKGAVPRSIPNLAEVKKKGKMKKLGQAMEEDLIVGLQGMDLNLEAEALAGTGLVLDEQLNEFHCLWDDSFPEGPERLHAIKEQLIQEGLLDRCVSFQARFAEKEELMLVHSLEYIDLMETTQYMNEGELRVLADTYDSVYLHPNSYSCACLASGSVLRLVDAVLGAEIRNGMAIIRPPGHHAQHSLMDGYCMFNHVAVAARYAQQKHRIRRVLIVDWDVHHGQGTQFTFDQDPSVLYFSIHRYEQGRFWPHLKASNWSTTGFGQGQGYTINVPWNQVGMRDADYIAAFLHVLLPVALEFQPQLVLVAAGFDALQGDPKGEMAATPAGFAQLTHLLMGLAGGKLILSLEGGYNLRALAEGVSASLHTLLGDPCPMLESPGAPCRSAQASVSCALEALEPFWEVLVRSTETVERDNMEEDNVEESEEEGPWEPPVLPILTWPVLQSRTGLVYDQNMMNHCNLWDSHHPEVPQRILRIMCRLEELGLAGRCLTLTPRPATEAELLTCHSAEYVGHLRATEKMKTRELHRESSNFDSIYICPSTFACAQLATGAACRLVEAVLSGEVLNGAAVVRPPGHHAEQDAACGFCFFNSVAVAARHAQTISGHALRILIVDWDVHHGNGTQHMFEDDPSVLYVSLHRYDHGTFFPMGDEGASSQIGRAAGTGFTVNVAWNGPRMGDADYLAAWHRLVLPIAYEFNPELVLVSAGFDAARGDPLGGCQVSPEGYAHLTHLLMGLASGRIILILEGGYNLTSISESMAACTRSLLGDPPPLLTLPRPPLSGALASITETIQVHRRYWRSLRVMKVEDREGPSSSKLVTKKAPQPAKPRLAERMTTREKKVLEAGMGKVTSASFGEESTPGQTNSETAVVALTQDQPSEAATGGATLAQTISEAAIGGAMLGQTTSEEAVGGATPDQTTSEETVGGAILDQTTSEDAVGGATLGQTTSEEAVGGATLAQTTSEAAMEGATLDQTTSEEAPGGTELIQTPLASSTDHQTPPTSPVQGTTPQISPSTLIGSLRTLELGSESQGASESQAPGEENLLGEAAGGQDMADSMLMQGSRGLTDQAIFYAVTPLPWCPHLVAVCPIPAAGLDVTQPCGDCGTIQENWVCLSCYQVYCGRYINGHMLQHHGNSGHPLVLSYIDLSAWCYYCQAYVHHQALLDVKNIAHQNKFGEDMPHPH
Experimental: (§1) To confirm the ability of NKL54, MC2984 and MC2985 to act as epigenetic drugs, we examined the levels of histone H3 lysine 9 acetylation (H3K9ac) by immunoblot. SAHA triggered an increase in H3K9 acetylation within 15 min of treatment (Figure 1G). […] The increase in H3K9ac in response to MC2985 treatment was very small, almost undetectable. […] Overall, the modulation of H3K9ac and of H3K27ac levels in response to the different compounds confirms the inhibitory potency observed with the KDAC assay in vivo. Finally, we compared the in vitro inhibitory activity of SAHA and of PAOA derivatives against different purified HDACs (NKL54 was chosen as an example). The inhibitory activity of NKL54 was specific to HDAC1/2/3 (Figure 1H). […] The Tanimoto coefficient is reported for all the compounds versus the reference BML-210. *Energy calculated on the re-docked ligand extracted from the 3MU6 complex available from PDB. **Tanimoto similarity index calculated with radius 2 circular Morgan fingerprints ([73]) in a python script ([74]) using the RDKit library ([75]). […] Cell death was scored after 48 h from treatments. […] Cell death was scored after 48 h from treatments. Data are from 3 independent experiments, + S.D. (F) Lys-deacetylase activity as measured from SK-UT-1 cells treated with increasing concentrations of the indicated compounds [1, 5, 10 μM]. […]

[2] = target: T2, HDAC8 (Homo sapiens, UniProt Q9BY41); assay: biochemical; design: in vitro inhibition of purified HDAC isozymes, dose response
T2 sequence (Q9BY41 1-377): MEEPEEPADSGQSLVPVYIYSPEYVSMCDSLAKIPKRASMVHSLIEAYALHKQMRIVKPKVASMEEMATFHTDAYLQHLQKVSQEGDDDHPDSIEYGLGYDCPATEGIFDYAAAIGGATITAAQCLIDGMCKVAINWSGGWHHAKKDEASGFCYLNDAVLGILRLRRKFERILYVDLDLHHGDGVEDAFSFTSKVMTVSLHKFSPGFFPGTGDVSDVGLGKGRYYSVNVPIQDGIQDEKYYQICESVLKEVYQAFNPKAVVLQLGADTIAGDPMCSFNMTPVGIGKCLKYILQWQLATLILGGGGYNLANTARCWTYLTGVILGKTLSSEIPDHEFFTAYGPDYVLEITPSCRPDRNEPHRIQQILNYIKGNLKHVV
Experimental: as §1

[3] = target: T3, HDAC3 (Homo sapiens, UniProt O15379); assay: fluorogenic deacetylase assay, trypsin-coupled AMC release; format: biochemical
T3 construct: purchased from BPS Bioscience; with Nuclear receptor corepressor 2

[4] = target: HDAC4 (Homo sapiens, UniProt P56524); assay: as above; format: biochemical
[5] = target: T4, HDAC1 (Homo sapiens, UniProt Q13547); assay: as above; format: biochemical
T4 construct: purchased from BPS Bioscience

[6] = target: T5, HDAC2 (Homo sapiens, UniProt Q92769); assay: as above; format: biochemical
T5 construct: purchased from BPS Bioscience
T5 sequence (Q92769 whole entry): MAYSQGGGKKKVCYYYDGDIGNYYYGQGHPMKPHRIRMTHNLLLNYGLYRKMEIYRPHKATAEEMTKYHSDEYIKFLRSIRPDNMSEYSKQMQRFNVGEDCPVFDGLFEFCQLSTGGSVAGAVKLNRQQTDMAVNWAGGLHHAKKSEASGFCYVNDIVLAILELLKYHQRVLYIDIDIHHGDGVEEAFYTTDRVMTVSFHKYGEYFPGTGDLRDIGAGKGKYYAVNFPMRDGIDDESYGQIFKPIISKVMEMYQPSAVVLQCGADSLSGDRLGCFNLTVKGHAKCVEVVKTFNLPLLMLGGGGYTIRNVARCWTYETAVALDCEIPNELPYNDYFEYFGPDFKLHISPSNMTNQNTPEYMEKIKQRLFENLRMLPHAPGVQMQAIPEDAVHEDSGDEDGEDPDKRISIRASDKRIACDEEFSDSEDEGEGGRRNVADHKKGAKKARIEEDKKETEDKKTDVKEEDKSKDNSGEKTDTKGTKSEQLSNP

T4 sequence (Q13547 whole entry): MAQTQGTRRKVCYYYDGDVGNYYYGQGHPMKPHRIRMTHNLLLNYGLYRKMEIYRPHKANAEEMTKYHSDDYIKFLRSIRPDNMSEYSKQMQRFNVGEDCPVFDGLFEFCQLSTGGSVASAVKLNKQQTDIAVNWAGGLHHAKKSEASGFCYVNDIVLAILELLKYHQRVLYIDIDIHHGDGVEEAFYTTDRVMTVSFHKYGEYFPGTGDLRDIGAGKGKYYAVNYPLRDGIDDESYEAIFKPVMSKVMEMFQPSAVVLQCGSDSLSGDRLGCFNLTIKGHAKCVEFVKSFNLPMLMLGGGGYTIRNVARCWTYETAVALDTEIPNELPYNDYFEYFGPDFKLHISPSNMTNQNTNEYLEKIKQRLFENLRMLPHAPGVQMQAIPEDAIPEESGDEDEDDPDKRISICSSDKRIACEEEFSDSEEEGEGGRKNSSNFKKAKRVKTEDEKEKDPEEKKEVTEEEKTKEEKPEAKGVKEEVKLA
Chain of HDAC4 (P56524 648-1057 limits assumed): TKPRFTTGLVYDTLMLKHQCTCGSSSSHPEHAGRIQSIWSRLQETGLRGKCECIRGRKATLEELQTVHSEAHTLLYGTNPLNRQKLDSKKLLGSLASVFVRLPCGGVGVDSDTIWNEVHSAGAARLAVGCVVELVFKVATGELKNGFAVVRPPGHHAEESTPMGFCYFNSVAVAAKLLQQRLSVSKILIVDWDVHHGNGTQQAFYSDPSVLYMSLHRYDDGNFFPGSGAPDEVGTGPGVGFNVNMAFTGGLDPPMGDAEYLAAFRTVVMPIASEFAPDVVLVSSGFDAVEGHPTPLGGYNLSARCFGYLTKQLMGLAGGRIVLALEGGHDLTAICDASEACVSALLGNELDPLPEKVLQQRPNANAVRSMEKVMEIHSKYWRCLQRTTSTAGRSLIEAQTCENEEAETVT
T3 sequence (O15379 whole entry): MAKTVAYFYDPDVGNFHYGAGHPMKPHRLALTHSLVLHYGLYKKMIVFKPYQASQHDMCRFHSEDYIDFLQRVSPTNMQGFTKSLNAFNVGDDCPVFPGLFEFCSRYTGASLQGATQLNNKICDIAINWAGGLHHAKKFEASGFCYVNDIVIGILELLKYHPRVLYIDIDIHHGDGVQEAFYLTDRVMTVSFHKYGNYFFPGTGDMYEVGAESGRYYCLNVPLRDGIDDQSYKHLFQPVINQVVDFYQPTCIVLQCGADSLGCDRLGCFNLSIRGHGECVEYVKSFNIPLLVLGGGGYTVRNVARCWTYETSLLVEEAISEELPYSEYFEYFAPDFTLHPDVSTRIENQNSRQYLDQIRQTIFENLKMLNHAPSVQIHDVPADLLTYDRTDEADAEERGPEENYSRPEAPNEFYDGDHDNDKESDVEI

Question: How did the IC50 [1] turn out when `Nc1ccccc1NC(=O)CCCCCC(=O)Nc1cccc(C(F)(F)F)c1` [NKL54, N-(2-aminophenyl)-N'-[3-(trifluoromethyl)phenyl]heptanediamide] was run?
Answer: Its IC50 is greater than 50000 nM.

Question: And the IC50 [2]?
Answer: The IC50 was greater than 50000 nM.

Question: What about the IC50 [3] of the same compound?
Answer: Its IC50 is 47 ± 2 nM.

Question: What about the IC50 [4] of the same compound?
Answer: Its IC50 is 35000 nM.

Question: And the IC50 [5]?
Answer: Its IC50 is 84 ± 4 nM.

Question: What about the IC50 [6] of the same compound?
Answer: Its IC50 is 176 ± 5 nM.

Reference: PMC8934631, “Transcriptomic and genomic studies classify NKL54 as a histone deacetylase inhibitor with indirect influence on MEF2-dependent transcription” (Nucleic Acids Research, 2022)
